Test system: human skin tissue
Test: Penetration rate of AI compound in AI-helper composition through human skin in vitro, modified Franz cells
Assay type: in vitro ADME
Settings: for Skin penetration rate of Al compound: Al compound 0.5% w/v; for Skin penetration rate of Al compound / Skin penetration rate of AI compound: 25 °C; for Skin penetration rate of alpha-lipoic acid: 20° C.
Protocol: Penetration rate of AI compound in the AI-helper composition through human skin were measured in vitro by modified Franz cells. A Franz cell had two chambers: the top sample chamber and the bottom receiving chamber. The human skin tissue (450-500 μm thick) that separated the top and the receiving chambers was isolated from the anterior or posterior thigh areas.

[1] = 2-(Diethylamino)ethyl 2-(4-isobutylphenyl)propionate hydrochloride 6% w/v, water
[2] = D-Phenylalanine isopropyl ester hydrochloride 6% w/v, water
[3] = Dialkylaminoalkyl 2-(4-isobutylphenyl)propionate: None
[4] = L-Phenylalanine isopropyl ester hydrochloride 6% w/v, water
[5] = no isoleucine ester (None), AI compound 0.5 % w/v in water
[6] = no leucine ester (None), AI compound 0.5 % w/v in water
[7] = no tryptophan ester (None), AI compound 0.5 % w/v in water
[8] = with D-isoleucine isopropyl ester hydrochloride 6 % w/v in water, AI compound 0.5 % w/v
[9] = with D-leucine isopropyl ester hydrochloride 6 % w/v in water, AI compound 0.5 % w/v
[10] = with D-tryptophan isopropyl ester hydrochloride 6 % w/v in water, AI compound 0.5 % w/v
[11] = with L-isoleucine isopropyl ester hydrochloride 6 % w/v in water, AI compound 0.5 % w/v
[12] = with L-leucine isopropyl ester hydrochloride 6 % w/v in water, AI compound 0.5 % w/v
[13] = with L-tryptophan isopropyl ester hydrochloride 6 % w/v in water, AI compound 0.5 % w/v

Molecule	Skin penetration rate of Al compound [1]	Skin penetration rate of Al compound [2]	Skin penetration rate of Al compound [3]	Skin penetration rate of Al compound [4]	Skin penetration rate of Al compound (Phenylalanine ester: None)	Skin penetration rate of AI compound [5]	Skin penetration rate of AI compound [6]	Skin penetration rate of AI compound [7]	Skin penetration rate of AI compound [8]	Skin penetration rate of AI compound [9]	Skin penetration rate of AI compound [10]	Skin penetration rate of AI compound [11]	Skin penetration rate of AI compound [12]	Skin penetration rate of AI compound [13]	other results
Vitamin B12	8.127 ± 3.211 μg/cm^2/h	8.156 ± 2.875 μg/cm^2/h	0.016 ± 0.008 μg/cm^2/h	8.236 ± 3.057 μg/cm^2/h	0.012 ± 0.006 μg/cm^2/h	0.0011 ± 0.006 μg/cm^2/h	0.008 ± 0.009 μg/cm^2/h	0.007 ± 0.011 μg/cm^2/h	6.816 ± 2.372 μg/cm^2/h	6.756 ± 2.325 μg/cm^2/h	8.718 ± 3.125 μg/cm^2/h	6.873 ± 3.061 μg/cm^2/h	6.813 ± 3.111 μg/cm^2/h	8.897 ± 3.211 μg/cm^2/h	
CC1=C(/C=C/C(C)=C/C=C/C(C)=C/C=C/C=C(C)/C=C/C=C(C)/C=C/C2=C(C)CCCC2(C)C)C(C)(C)CCC1 [Beta Carotene]	10.138 ± 2.381 μg/cm^2/h	10.658 ± 2.003 μg/cm^2/h	0.015 ± 0.011 μg/cm^2/h	10.772 ± 2.174 μg/cm^2/h	0.019 ± 0.008 μg/cm^2/h	0.015 ± 0.007 μg/cm^2/h	0.012 ± 0.011 μg/cm^2/h	0.009 ± 0.013 μg/cm^2/h	9.471 ± 2.323 μg/cm^2/h	9.501 ± 2.763 μg/cm^2/h	11.598 ± 2.173 μg/cm^2/h	9.412 ± 2.781 μg/cm^2/h	9.252 ± 2.321 μg/cm^2/h	11.372 ± 2.326 μg/cm^2/h	
Oc1ccc(C=Cc2cc(O)cc(O)c2)cc1 [Resveratrol]	18.568 ± 3.112 μg/cm^2/h	18.745 ± 3.112 μg/cm^2/h	0.015 ± 0.011 μg/cm^2/h	18.978 ± 2.135 μg/cm^2/h	0.015 ± 0.011 μg/cm^2/h	0.016 ± 0.010 μg/cm^2/h	0.013 ± 0.011 μg/cm^2/h	0.017 ± 0.021 μg/cm^2/h		16.028 ± 2.862 μg/cm^2/h	20.728 ± 3.962 μg/cm^2/h	16.236 ± 2.805 μg/cm^2/h	16.126 ± 3.005 μg/cm^2/h	20.177 ± 3.195 μg/cm^2/h	
N[C@@H](CCC(=O)N[C@@H](CS)C(=O)NCC(=O)O)C(=O)O [Glutathione]	16.356 ± 3.011 μg/cm^2/h	17.526 ± 2.451 μg/cm^2/h	0.012 ± 0.010 μg/cm^2/h	17.358 ± 2.259 μg/cm^2/h	0.016 ± 0.009 μg/cm^2/h	0.013 ± 0.011 μg/cm^2/h	0.011 ± 0.008 μg/cm^2/h	0.008 ± 0.013 μg/cm^2/h	14.581 ± 2.183 μg/cm^2/h	14.121 ± 2.131 μg/cm^2/h	18.126 ± 3.451 μg/cm^2/h	14.698 ± 2.321 μg/cm^2/h	14.128 ± 2.119 μg/cm^2/h	17.978 ± 3.479 μg/cm^2/h	
Vitamin E	19.783 ± 4.025 μg/cm^2/h	21.363 ± 2.015 μg/cm^2/h	0.012 ± 0.006 μg/cm^2/h	21.357 ± 3.120 μg/cm^2/h	0.016 ± 0.011 μg/cm^2/h	0.016 ± 0.009 μg/cm^2/h	0.012 ± 0.007 μg/cm^2/h	0.008 ± 0.008 μg/cm^2/h	19.321 ± 3.012 μg/cm^2/h	19.723 ± 3.046 μg/cm^2/h	22.783 ± 3.145 μg/cm^2/h	19.412 ± 3.076 μg/cm^2/h	19.611 ± 3.126 μg/cm^2/h	23.657 ± 4.120 μg/cm^2/h	
CC1=C(/C=C/C(C)=C/C=C/C(C)=C/C=C/C=C(C)/C=C/C=C(C)/C=C/C2=C(C)C(=O)[C@@H](O)CC2(C)C)C(C)(C)C[C@H](O)C1=O [Astaxanthin]	12.331 ± 2.182 μg/cm^2/h	12.431 ± 2.178 μg/cm^2/h	0.019 ± 0.010 μg/cm^2/h	12.341 ± 2.042 μg/cm^2/h	0.019 ± 0.011 μg/cm^2/h	0.013 ± 0.009 μg/cm^2/h	0.010 ± 0.008 μg/cm^2/h	0.012 ± 0.013 μg/cm^2/h	11.354 ± 2.452 μg/cm^2/h	11.134 ± 2.183 μg/cm^2/h		11.431 ± 2.312 μg/cm^2/h	11.251 ± 2.112 μg/cm^2/h		
Cc1ncc(CO)c(CO)c1O.Cl [Vitamin B6]		16.531 ± 2.106 μg/cm^2/h	0.023 ± 0.027 μg/cm^2/h	16.751 ± 2.012 μg/cm^2/h	0.057 ± 0.011 μg/cm^2/h	0.022 ± 0.017 μg/cm^2/h	0.029 ± 0.035 μg/cm^2/h	0.059 ± 0.031 μg/cm^2/h	13.468 ± 2.211 μg/cm^2/h		17.131 ± 2.332 μg/cm^2/h	13.632 ± 2.125 μg/cm^2/h		17.251 ± 2.415 μg/cm^2/h	
O=C(O)CCCCC1CCSS1 (stereo not drawn) [Alpha-lipoic acid]	30.478 ± 2.982 μg/cm^2/h	31.796 ± 3.176 μg/cm^2/h	0.056 ± 0.032 μg/cm^2/h	32.878 ± 3.568 μg/cm^2/h	0.058 ± 0.047 μg/cm^2/h	0.057 ± 0.036 μg/cm^2/h	0.051 ± 0.023 μg/cm^2/h	0.071 ± 0.063 μg/cm^2/h	28.013 ± 2.078 μg/cm^2/h	27.476 ± 2.116 μg/cm^2/h	35.456 ± 2.476 μg/cm^2/h	28.897 ± 2.126 μg/cm^2/h	28.377 ± 2.378 μg/cm^2/h	36.378 ± 2.978 μg/cm^2/h	Skin penetration rate of alpha-lipoic acid (0.5% alpha-lipoic acid without helper esters): 0.071 ± 0.063 μg/cm^2/h; Skin penetration rate of alpha-lipoic acid (alpha-lipoic acid 0.5% w/v, Tryptophan isopropyl ester•HA 6% w/v, HA = 1/2H2SO4, water): 33.928 ± 2.876 μg/cm^2/h; Skin penetration rate of alpha-lipoic acid (alpha-lipoic acid 0.5% w/v, Tryptophan isopropyl ester•HA 6% w/v, HA = 1/3H3PO4, water): 34.321 ± 2.867 μg/cm^2/h; Skin penetration rate of alpha-lipoic acid (alpha-lipoic acid 0.5% w/v, Tryptophan isopropyl ester•HA 6% w/v, HA = 2/3H3PO4, water): 34.691 ± 3.511 μg/cm^2/h; Skin penetration rate of alpha-lipoic acid (alpha-lipoic acid 0.5% w/v, Tryptophan isopropyl ester•HA 6% w/v, HA = Acetic acid, water): 35.006 ± 2.892 μg/cm^2/h; Skin penetration rate of alpha-lipoic acid (alpha-lipoic acid 0.5% w/v, Tryptophan isopropyl ester•HA 6% w/v, HA = Benzoic acid, water): 34.665 ± 3.019 μg/cm^2/h; Skin penetration rate of alpha-lipoic acid (alpha-lipoic acid 0.5% w/v, Tryptophan isopropyl ester•HA 6% w/v, HA = Butyric acid, water): 35.178 ± 3.598 μg/cm^2/h; Skin penetration rate of alpha-lipoic acid (alpha-lipoic acid 0.5% w/v, Tryptophan isopropyl ester•HA 6% w/v, HA = Citric acid, water): 35.371 ± 3.587 μg/cm^2/h; Skin penetration rate of alpha-lipoic acid (alpha-lipoic acid 0.5% w/v, Tryptophan isopropyl ester•HA 6% w/v, HA = H2SO4, water): 33.780 ± 2.891 μg/cm^2/h; Skin penetration rate of alpha-lipoic acid (alpha-lipoic acid 0.5% w/v, Tryptophan isopropyl ester•HA 6% w/v, HA = HBr, water): 35.211 ± 3.285 μg/cm^2/h; Skin penetration rate of alpha-lipoic acid (alpha-lipoic acid 0.5% w/v, Tryptophan isopropyl ester•HA 6% w/v, HA = HCl, water): 35.456 ± 2.476 μg/cm^2/h; Skin penetration rate of alpha-lipoic acid (alpha-lipoic acid 0.5% w/v, Tryptophan isopropyl ester•HA 6% w/v, HA = HF, water): 34.673 ± 3.156 μg/cm^2/h; Skin penetration rate of alpha-lipoic acid (alpha-lipoic acid 0.5% w/v, Tryptophan isopropyl ester•HA 6% w/v, HA = HI, water): 34.467 ± 2.583 μg/cm^2/h; Skin penetration rate of alpha-lipoic acid (alpha-lipoic acid 0.5% w/v, Tryptophan isopropyl ester•HA 6% w/v, HA = Lactic acid, water): 35.007 ± 2.879 μg/cm^2/h

Source: patent US9962369B2, “Methods and compositions for transdermal delivery” (SPRAYABLE HOLDINGS, INC., priority 2014, dated 2018)
